Laboratory results reported in PMC12888861, “Antibacterial activity of enmetazobactam against Acinetobacter spp.: a molecular dissection of mechanism of action and resistance determinants” (Antimicrobial Agents and Chemotherapy, 2025).
Where two headings read alike, the source gives them in different places.

Tested on: A. non-baumannii isolates (n = 87)
Experiment: MIC, broth microdilution (EUCAST), A. non-baumannii isolates
Format: cell-based, Acinetobacter spp. (non-baumannii)
Settings: for MIC: in combinations ETZ fixed at 8 mg/L
Procedure, shortened: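 Broth microdilution per EUCAST v.15 guidelines on clinical Acinetobacter isolates from a Spanish 2020 multicenter collection; enmetazobactam also tested alone. A. baumannii ATCC 19606 served as reference strain, in duplicate assays.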

For CC1(C)[C@H](C(=O)O)N2C(=O)C[C@H]2S1(=O)=O [sulbactam], the “MIC distribution 0.12” value was 2.3, the “MIC distribution 0.25” value was 8.0 and the “MIC distribution 0.5” value was 44.8. The “MIC distribution 1” value was 82.8, the “MIC distribution 2” value was 97.7 and the “MIC distribution 4” value was 100. The “MIC distribution 8” value was 100, the “MIC distribution 16” value was 100 and the “MIC distribution 32” value was 100. For the same compound, the “MIC distribution ≤0.06” value was 1.1, the MIC (Acinetobacter baylyi, isolate NO-Ab27, Acinetobacter baylyi, read-out: MIC) was 1 µg/mL and the MIC (Acinetobacter beijerinckii, isolate NO-Ab122, Acinetobacter beijerinckii, read-out: MIC) was 2 µg/mL. It also gave an MIC (Acinetobacter bereziniae, isolate NO-Ab70, Acinetobacter bereziniae, read-out: MIC) of 0.5 µg/mL, an MIC (Acinetobacter bereziniae, isolate NO-Ab84, Acinetobacter bereziniae, read-out: MIC) of 1 µg/mL and an MIC (Acinetobacter bereziniae, isolate NO-Ab104, Acinetobacter bereziniae, read-out: MIC) of 0.5 µg/mL. For the same compound, the MIC (Acinetobacter bereziniae, isolate NO-Ab114, Acinetobacter bereziniae, read-out: MIC) was 1 µg/mL, the MIC (Acinetobacter bereziniae, isolate NO-Ab115, Acinetobacter bereziniae, read-out: MIC) was 1 µg/mL and the MIC (Acinetobacter bereziniae, isolate NO-Ab116, Acinetobacter bereziniae, read-out: MIC) was 0.5 µg/mL. The MIC (Acinetobacter bereziniae, isolate NO-Ab117, Acinetobacter bereziniae, read-out: MIC) was 1 µg/mL, the MIC (Acinetobacter bereziniae, isolate NO-Ab129, Acinetobacter bereziniae, read-out: MIC) was 1 µg/mL and the MIC (Acinetobacter bereziniae, isolate NO-Ab156, Acinetobacter bereziniae, read-out: MIC) was 1 µg/mL. The MIC (Acinetobacter calcoaceticus, isolate NO-Ab85, Acinetobacter calcoaceticus, read-out: MIC) was 2 µg/mL, the MIC (Acinetobacter calcoaceticus, isolate NO-Ab94, Acinetobacter calcoaceticus, read-out: MIC) was 2 µg/mL and the MIC (Acinetobacter calcoaceticus, isolate NO-Ab108, Acinetobacter calcoaceticus, read-out: MIC) was 4 µg/mL. The MIC (Acinetobacter calcoaceticus, isolate NO-Ab161, Acinetobacter calcoaceticus, read-out: MIC) was 4 µg/mL, the MIC (Acinetobacter calcoaceticus, isolate NO-Ab198, Acinetobacter calcoaceticus, read-out: MIC) was 2 µg/mL and the MIC (Acinetobacter calcoaceticus, isolate NO-Ab205, Acinetobacter calcoaceticus, read-out: MIC) was 2 µg/mL. The MIC (Acinetobacter calcoaceticus, isolate NO-Ab211, Acinetobacter calcoaceticus, read-out: MIC) was 1 µg/mL, the MIC (Acinetobacter courvalinii, isolate NO-Ab216, Acinetobacter courvalinii, read-out: MIC) was 0.5 µg/mL and the MIC (Acinetobacter dispersus, isolate NO-Ab2, Acinetobacter dispersus, read-out: MIC) was 0.5 µg/mL. The MIC (Acinetobacter guillouiae, isolate NO-Ab69, Acinetobacter guillouiae, read-out: MIC) was 1 µg/mL, the MIC (Acinetobacter guillouiae, isolate NO-Ab74, Acinetobacter guillouiae, read-out: MIC) was 0.5 µg/mL and the MIC (Acinetobacter haemolyticus, isolate NO-Ab92, Acinetobacter haemolyticus) was 0.5 µg/mL. It also gave an MIC (Acinetobacter haemolyticus, isolate NO-Ab177, Acinetobacter haemolyticus) of 0.5 µg/mL, an MIC (Acinetobacter haemolyticus, isolate NO-Ab217, Acinetobacter haemolyticus) of 0.25 µg/mL and an MIC (Acinetobacter johnsonii, isolate NO-Ab101, Acinetobacter johnsonii, read-out: MIC) of 1 µg/mL. The MIC (Acinetobacter junii, isolate NO-Ab76, Acinetobacter junii, read-out: MIC) was 0.5 µg/mL, the MIC (Acinetobacter junii, isolate NO-Ab77, Acinetobacter junii, OXA-24/40, read-out: MIC) was 0.5 µg/mL and the MIC (Acinetobacter lactucae, isolate NO-Ab60, Acinetobacter dijkshoorniae, read-out: MIC) was 1 µg/mL. For the same compound, the MIC (Acinetobacter lactucae, isolate NO-Ab63, Acinetobacter dijkshoorniae, read-out: MIC) was 1 µg/mL, the MIC (Acinetobacter lactucae, isolate NO-Ab65, Acinetobacter dijkshoorniae, read-out: MIC) was 1 µg/mL and the MIC (Acinetobacter lactucae, isolate NO-Ab86, Acinetobacter dijkshoorniae, read-out: MIC) was 1 µg/mL. For the same compound, the MIC (Acinetobacter lactucae, isolate NO-Ab88, Acinetobacter dijkshoorniae, read-out: MIC) was 0.5 µg/mL, the MIC (Acinetobacter lactucae, isolate NO-Ab91, Acinetobacter dijkshoorniae, read-out: MIC) was 1 µg/mL and the MIC (Acinetobacter lactucae, isolate NO-Ab121, Acinetobacter dijkshoorniae, read-out: MIC) was 2 µg/mL. For the same compound, the MIC (Acinetobacter lactucae, isolate NO-Ab125, Acinetobacter dijkshoorniae, read-out: MIC) was 1 µg/mL, the MIC (Acinetobacter lactucae, isolate NO-Ab160, Acinetobacter dijkshoorniae, read-out: MIC) was 0.5 µg/mL and the MIC (Acinetobacter nosocomialis, isolate NO-Ab43, Acinetobacter nosocomialis, read-out: MIC) was 2 µg/mL. It also gave an MIC (Acinetobacter nosocomialis, isolate NO-Ab68, Acinetobacter nosocomialis, OXA-24/40, read-out: MIC) of 1 µg/mL, an MIC (Acinetobacter nosocomialis, isolate NO-Ab98, Acinetobacter nosocomialis, read-out: MIC) of 2 µg/mL and an MIC (Acinetobacter nosocomialis, isolate NO-Ab208, Acinetobacter nosocomialis, read-out: MIC) of 0.5 µg/mL.
